≈ marks a conversion by molar mass, not a printed value.
What was measured:
[1] = test system: Staphylococcus aureus MRSA strain (USA300 isolate); test: Hemolysis Assay II (exotoxin-mediated lysis of rabbit red blood cells by culture filtrate); format: cell-based; settings: Erythrocyte; for minimal effective concentration / IC95: 18 h; for minimal effective concentration: absorbance <2× the average of the complete inhibition control, read-out: Hemolysis assay II MEC (minimal effective concentration); for IC95: read-out: Hemolysis assay II IC95; for IC50: 18 h culture in CA-MHB, rabbit red blood cells
HepG2 = settings: human, 48 h
MRSA = test: MIC by broth microdilution in CA-MHB (CLSI); settings: Staphylococcus aureus, 18 h, read-out: MIC on MRSA
Description: Minimal inhibitory concentrations (MIC) were determined by broth microdilution method in cation-adjusted Mueller-Hinton (CA-MHB) broth according to the CLSI guideline. From an overnight culture plate, cells were resuspended in 0.9% (w/v) saline solution and bacterial inoculum was prepared in CA-MHB with 5×10^5 CFU/ml. Compounds were two-fold serially diluted in CA-MHB and 10 μL of this 10× concentrated samples were added into the 96-well plate. 90 μL of bacterial suspension was finally added to the compounds. Plates were covered and incubated without shaking at 35° C. for 18 hours. Every experiment contained an antibiotic as quality control. MIC was determined visually as the lowest concentration of a compound that prevents visible growth of the bacteria and the plates were scanned for documentation.

SMILES	minimal effective concentration [1] [µg/mL]	IC95 [1] [µg/mL]	IC50 [1] [µg/mL]	LD50 HepG2 (HepG2)	MIC (MRSA) [µM]
Cc1ccc(S(=O)(=O)c2nnn3c2[nH]c(=O)c2cc(Cl)ccc23)c(C)c1 [Compound 1, 7-chloro-3-(2,4-dimethylphenyl)sulfonyl-4H-triazolo[1,5-a]quinazolin-5-one]	4	2.95 (≈ 7.59 µM)	1.1 (≈ 2.83 µM)	>=100 μM	≥ 100
Cc1ccc(S(=O)(=O)c2nnn3c2[nH]c(=O)c2c(Cl)cccc23)c(C)c1 [Compound 2, 6-chloro-3-(2,4-dimethylphenyl)sulfonyl-4H-triazolo[1,5-a]quinazolin-5-one]	2	2.5 (≈ 6.43 µM)	0.85 (≈ 2.19 µM)	>=100 μM	≥ 100
Cc1ccc(S(=O)(=O)c2nnn3c2[nH]c(=O)c2cccc(Cl)c23)c(C)c1 [Compound 4, 9-chloro-3-(2,4-dimethylphenyl)sulfonyl-4H-triazolo[1,5-a]quinazolin-5-one]	8	5.2 (≈ 13.4 µM)	2.3 (≈ 5.92 µM)	50 µM	≥ 100
Cc1ccc(S(=O)(=O)c2nnn3c2[nH]c(=O)c2ccc(C#N)cc23)c(C)c1 [Compound 6, 3-(2,4-dimethylphenyl)sulfonyl-5-oxo-4H-triazolo[1,5-a]quinazoline-8-carbonitrile]				>=100 μM	≥ 100
Cc1ccc(S(=O)(=O)c2nnn3c2[nH]c(=O)c2ccc(F)cc23)c(C)c1 [Compound 7, 3-(2,4-dimethylphenyl)sulfonyl-8-fluoro-4H-triazolo[1,5-a]quinazolin-5-one]	4	4.8 (≈ 12.9 µM)	1.7 (≈ 4.57 µM)	>=100 μM	≥ 100
CC(C)c1ccc(S(=O)(=O)c2nnn3c2[nH]c(=O)c2c(Cl)cccc23)cc1 [Compound 8, 6-chloro-3-(4-isopropylphenyl)sulfonyl-4H-triazolo[1,5-a]quinazolin-5-one]	4	3.8 (≈ 9.43 µM)	2.2 (≈ 5.46 µM)	>=100 μM	≥ 100
CC(C)c1ccc(S(=O)(=O)c2nnn3c2[nH]c(=O)c2cccc(Cl)c23)cc1 [Compound 9, 9-chloro-3-(4-isopropylphenyl)sulfonyl-4H-triazolo[1,5-a]quinazolin-5-one]				25 µM	25 (≈ 10.1 µg/mL)
COc1ccc2c(=O)[nH]c3c(S(=O)(=O)c4ccc(C)cc4OC)nnn3c2c1 [Compound 10, 8-methoxy-3-(2-methoxy-4-methyl-phenyl)sulfonyl-4H-triazolo[1,5-a]quinazolin-5-one]				>=100 μM	≥ 100
COc1ccc2c(=O)[nH]c3c(S(=O)(=O)c4ccc(OC(C)C)cc4C)nnn3c2c1 [Compound 11, 3-(4-isopropoxy-2-methyl-phenyl)sulfonyl-8-methoxy-4H-triazolo[1,5-a]quinazolin-5-one]				>=100 μM	≥ 100
COc1ccc2c(=O)[nH]c3c(S(=O)(=O)c4ccc(Br)cc4C)nnn3c2c1 [Compound 13, 3-(4-bromo-2-methyl-phenyl)sulfonyl-8-methoxy-4H-triazolo[1,5-a]quinazolin-5-one]				>=100 μM	≥ 100
COc1ccc2c(=O)[nH]c3c(S(=O)(=O)c4ccc(C)cc4F)nnn3c2c1 [Compound 14, 3-(2-fluoro-4-methyl-phenyl)sulfonyl-8-methoxy-4H-triazolo[1,5-a]quinazolin-5-one]				>=100 μM	≥ 100
COc1ccc(S(=O)(=O)c2nnn3c2[nH]c(=O)c2ccc(OC)cc23)c(C)c1 [Compound 15, 8-methoxy-3-(4-methoxy-2-methyl-phenyl)sulfonyl-4H-triazolo[1,5-a]quinazolin-5-one]				>=100 μM	≥ 100
COc1ccc2c(=O)[nH]c3c(S(=O)(=O)c4ccc(NC(C)=O)cc4C)nnn3c2c1 [Compound 16, N-[4-[(8-methoxy-5-oxo-4H-triazolo[1,5-a]quinazolin-3-yl)sulfonyl]-3-methyl-phenyl]acetamide]				>=100 μM	≥ 100
COc1ccc2c(=O)[nH]c3c(S(=O)(=O)c4ccc(F)cc4C)nnn3c2c1 [Compound 17, 3-(4-fluoro-2-methyl-phenyl)sulfonyl-8-methoxy-4H-triazolo[1,5-a]quinazolin-5-one]				>=100 μM	≥ 100
COc1ccc2c(=O)[nH]c3c(S(=O)(=O)c4ccc(OC(F)(F)F)cc4C)nnn3c2c1 [Compound 19, 8-methoxy-3-[2-methyl-4-(trifluoromethoxy)phenyl]sulfonyl-4H-triazolo[1,5-a]quinazolin-5-one]				>=100 μM	≥ 100
COc1ccc2c(=O)[nH]c3c(S(=O)(=O)c4ccc(Cl)cc4C)nnn3c2c1 [Compound 20, 3-(4-chloro-2-methyl-phenyl)sulfonyl-8-methoxy-4H-triazolo[1,5-a]quinazolin-5-one]				>=100 μM	≥ 100

SMILES	minimal effective concentration [1] [µg/mL]	IC95 [1] [µg/mL]	IC50 [1] [µg/mL]	LD50 HepG2 (HepG2)	MIC (MRSA) [µM]
COc1ccc2c(=O)[nH]c3c(S(=O)(=O)c4ccc(C5CC5)cc4)nnn3c2c1 [Compound 21, 3-(4-cyclopropylphenyl)sulfonyl-8-methoxy-4H-triazolo[1,5-a]quinazolin-5-one]	4	3.4 (≈ 8.58 µM)	1.5 (≈ 3.78 µM)	>=100 μM	≥ 100
COc1ccc2c(=O)[nH]c3c(S(=O)(=O)c4ccc(C#N)cc4C)nnn3c2c1 [Compound 22, 4-[(8-methoxy-5-oxo-4H-triazolo[1,5-a]quinazolin-3-yl)sulfonyl]-3-methyl-benzonitrile]				>=100 μM	≥ 100
COc1ccc2c(=O)[nH]c3c(S(=O)(=O)c4ccc(C(=O)O)cc4C)nnn3c2c1 [Compound 23, 4-[(8-methoxy-5-oxo-4H-triazolo[1,5-a]quinazolin-3-yl)sulfonyl]-3-methyl-benzoic acid]				>=100 μM	≥ 100
CCOC(=O)c1ccc(S(=O)(=O)c2nnn3c2[nH]c(=O)c2ccc(OC)cc23)c(C)c1 [Compound 24, ethyl 4-[(8-methoxy-5-oxo-4H-triazolo[1,5-a]quinazolin-3-yl)sulfonyl]-3-methyl-benzoate]				>=100 μM	≥ 100
COc1ccc2c(=O)[nH]c3c(S(=O)(=O)c4ccc(C(F)(F)F)cc4)nnn3c2c1 [Compound 25, 8-methoxy-3-[4-(trifluoromethyl)phenyl]sulfonyl-4H-triazolo[1,5-a]quinazolin-5-one]				>=100 μM	≥ 100
COc1ccc2c(=O)[nH]c3c(S(=O)(=O)c4ccc(C5CC5)cc4C)nnn3c2c1 [Compound 27, 3-(4-cyclopropyl-2-methyl-phenyl)sulfonyl-8-methoxy-4H-triazolo[1,5-a]quinazolin-5-one]	2	1.9 (≈ 4.63 µM)	0.15 (≈ 0.365 µM)	>=100 μM	≥ 100
CCc1ccc(S(=O)(=O)c2nnn3c2[nH]c(=O)c2ccc(OC)cc23)c(C)c1 [Compound 28, 3-(4-ethyl-2-methyl-phenyl)sulfonyl-8-methoxy-4H-triazolo[1,5-a]quinazolin-5-one]	8	4.5 (≈ 11.3 µM)	2 (≈ 5.02 µM)	>=100 μM	≥ 100
COc1ccc2c(=O)[nH]c3c(S(=O)(=O)c4ccc(C#N)cc4)nnn3c2c1 [Compound 29, 4-[(8-methoxy-5-oxo-4H-triazolo[1,5-a]quinazolin-3-yl)sulfonyl]benzonitrile]				>=100 μM	≥ 100
COc1ccc2c(c1)c(=O)[nH]c1c(S(=O)(=O)c3ccc(C)cc3C)nnn12 [Compound 30, 3-(2,4-dimethylphenyl)sulfonyl-7-methoxy-4H-triazolo[1,5-a]quinazolin-5-one]				>=100 μM	≥ 100
COc1ccc2c(=O)[nH]c3c(S(=O)(=O)c4ccc(-c5nn[nH]n5)cc4C)nnn3c2c1 [Compound 31, 8-methoxy-3-[2-methyl-4-(2H-tetrazol-5-yl)phenyl]sulfonyl-4H-triazolo[1,5-a]quinazolin-5-one]				>=100 μM	≥ 100
COc1ccc2c(=O)[nH]c3c(S(=O)(=O)c4ccc(C(N)=O)cc4C)nnn3c2c1 [Compound 32, 4-[(8-methoxy-5-oxo-4H-triazolo[1,5-a]quinazolin-3-yl)sulfonyl]-3-methyl-benzamide]				>=100 μM	≥ 100
COc1ccc2c(=O)[nH]c3c(S(=O)(=O)c4ccc(-c5nnc(C)[nH]5)cc4C)nnn3c2c1 [Compound 33, 8-methoxy-3-[2-methyl-4-(5-methyl-4H-1,2,4-triazol-3-yl)phenyl]sulfonyl-4H-triazolo[1,5-a]quinazolin-5-one]				>=100 μM	≥ 100
Cc1ccc(S(=O)(=O)c2nnn3c2[nH]c(=O)c2ccc(OCC#N)cc23)c(C)c1 [Compound 54, 2-[[3-(2,4-dimethylphenyl)sulfonyl-5-oxo-4H-triazolo[1,5-a]quinazolin-8-yl]oxy]acetonitrile]				>=100 μM	≥ 100
Cc1ccc(S(=O)(=O)c2nnn3c2[nH]c(=O)c2ccc(OCCCC(N)=O)cc23)c(C)c1 [Compound 56, 4-[[3-(2,4-dimethylphenyl)sulfonyl-5-oxo-4H-triazolo[1,5-a]quinazolin-8-yl]oxy]butanamide]				>=100 μM	≥ 100
COc1cc2c(=O)[nH]c3c(S(=O)(=O)c4ccc(C)cc4C)nnn3c2cc1O [Compound 57, 3-(2,4-dimethylphenyl)sulfonyl-8-hydroxy-7-methoxy-4H-triazolo[1,5-a]quinazolin-5-one]				>=100 μM	≥ 100
Cc1ccc(S(=O)(=O)c2nnn3c2[nH]c(=O)c2cc(O)c(OCCO)cc23)c(C)c1 [Compound 61, 3-(2,4-dimethylphenyl)sulfonyl-7-hydroxy-8-(2-hydroxyethoxy)-4H-triazolo[1,5-a]quinazolin-5-one]				>=100 μM	≥ 100
